Experimental data taken from US20240247074A1, “THERAPEUTIC STRATEGY FOR NON-SMALL CELL LUNG CANCER AND OTHER CANCERS” (New York University, priority 2023, published 2024).

Experiments:
[1] = tested on: KL tumors (LKB1 mutant lung cancer tumors); assay: KL tumor growth after EP300 inhibitor treatment; format: in vivo; conditions: FIG. 6C, 6D
From the text: (§1) FIG. 6. EP300 inhibition suppresses LKB1 mutant tumor progression. (A), EP300 inhibitors CCS1477 and A485 suppresses CD38 expression in LKB1 mutant tumors. (B), Representative FACS analysis of CD38 expression after drug treatment. (C), Tumor volume changes of KL tumors after indicated EP300 inhibitors treatment. (D). Tumor growth curve of KL tumors treated with CCS1477 or A485.
(§2) Since LKB1/SIK suppresses CD38 expression through CTRC/EP300/CREB complex, we further tested inhibition of CD38 via EP300 inhibitors, including CCS1477 and A485, in LKB1 mutant lung cancer tumors.

CD38 expression [2] = assay: FACS analysis of CD38 expression in LKB1 mutant tumors after EP300 inhibitor treatment; format: cell-based; conditions: LKB1 mutant lung cancer tumors, FIG. 6A, 6B
From the text: as §1, §2

HCC44 xenograft tumor = HCC44 xenograft tumor growth in nu/nu mice; format: in vivo, mouse; conditions: LKB1 mutant HCC44 xenograft, 12.5 mg/kg once per week from about 100 mm^3, vs hIgG1, FIG. 5
Method: (§3) FIG. 5. Daratumumab induces killing of CD38 positive lung cancer. […] A549 (A-C) or HCC44 (D-F) xenograft tumor growth in response to daratumumab treatment. For each mouse, 3×10^6 A549 cells (A) or 5×10^5 HCC44 (D) were implanted into nu/nu mice subcutaneously. Daratumumab or hIgG1 (12.5 mg/kg, once per week) was dosed when tumor size reached 100 mm^3. Growth curve of A549 cells (A) or HCC44 (D) after daratumumab treatment. B-C, Individual mouse tumor growth curve for A549 xenografts treated with either hIgG1 (B) or Daratumumab (C) shown in panel A. (E-F), Individual mouse tumor growth curve for HCC44 xenograft treated with either hIgG1 (E) or Daratumumab (F) shown in panel D.
(§4) To study the effects of daratumumab in vivo, we implanted the LKB1 mutant A549 and HCC44 cell lines into athymic nude (nu/nu) mice to generate tumor xenografts. Daratumumab is a human IgG1, which can be recognized by mouse FcγRs on effector cells, resulting in ADCC induced between daratumumab with mouse NK cells through crosstalk, enabling evaluation of NK cell-mediated tumor cell killing in vivo. When tumors reached approximately 100 mm^3 in volume, mice were treated with daratumumab once weekly.

A549 xenograft tumor = A549 xenograft tumor growth in nu/nu mice; format: in vivo, mouse; conditions: LKB1 mutant A549 xenograft, 12.5 mg/kg once per week from about 100 mm^3, vs hIgG1, FIG. 5
Method: as §3, §4

CD38 expression [3] = assay: Flow cytometric analysis of CD38 expression after SIK inhibitor treatment in LKB1 WT mouse cancer cell lines; format: cell-based; conditions: LKB1 WT mouse lung cancer (KPC), colon cancer (CT26, MC38) and pancreatic cancer (KP1) lines; flow cytometry; FIG. 3
From the text: FIG. 3. SIK inhibitor increases upregulation of CD38 in LKB1 wildtype tumors. Flow cytometric analysis of CD38 expression changes after SIK inhibitor YKL-05-099 treatment in lung cancer (KPC) (A), and colon cancer (CT26, MC38) or pancreatic cancer (KP1) lines (B) at the indicated time points and concentration.
In line with the results of the LKB1 rescue studies, CRISPR-mediated knockout of Lkb1 in murine KP NSCLC cells led to increased cell surface expression of CD38 (FIG. 2A, 2B). We subsequently tested the impact of knockout of Sik1, Sik2 and Sik3, alone or in combination. We observed prominent increases in CD38 expression at the cell surface in KP cells upon inactivation of Sik1 or of all three SIK family members, but not to the level of CD38 in KP sgLkb1 cells (FIG. 2A, 2B). Without intending to be constrained by any particular theory, it is considered this indicates other factors other than SIK1/2/3 downstream of LKB1, might also contribute to the suppression of CD38 expression.

Compound | tumor growth in vivo [1] | CD38 expression on the tumor cells (CD38 expression [2]) | tumor growth (HCC44 xenograft tumor) | tumor growth (A549 xenograft tumor) | CD38 expression change (CD38 expression [3])
CNC(=O)Nc1ccc2c(c1)CC[C@@]21OC(=O)N(CC(=O)N(Cc2ccc(F)cc2)[C@@H](C)C(F)(F)F)C1=O [A485] | reduced tumor growth | decrease of CD38 expression | – | – | –
daratumumab: first approved antibody against CD38, a fully human IgG1-κ monoclonal antibody | – | – | significant reduction in tumor growth | significant reduction in tumor growth | –
COc1ccc(N2C(=O)N(c3c(C)cccc3Cl)Cc3cnc(Nc4ccc(C5CCN(C)CC5)cc4OC)nc32)nc1 [YKL-05-099] | – | – | – | – | upregulated CD38
CO[C@H]1CC[C@H](n2c([C@@H]3CCCC(=O)N3c3ccc(F)c(F)c3)nc3cc(-c4c(C)noc4C)ccc32)CC1 [CCS1477] | reduced tumor growth | decrease of CD38 expression | – | – | –
